Measured values taken from patent US20160158200A1, “Combinations of Hepatitis C Virus Inhibitors” (priority 2013, published 2016).

Test system: HCV genotype-1a variant with glutamine 30 changed to glutamate in the NS5A protein
Type: cell-based
Conditions: test compound titrated with BMS-790052 fixed at 200 nM; genotype 1a Q30E replicon
In short: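 Synergy was assessed by combining several fixed amounts of an NS5A-targeting compound with a titration of the second compound of interest.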

| SMILES | Fold-Synergistic 1a (Q30E) [fold] |
| --- | --- |
| CC(C)[C@H](NC(=O)C1CCC(F)(F)CC1)c1ncc(-c2ccc3cc(-c4ccc5nc([C@@H](NC(=O)C6CCC(F)(F)CC6)C(C)C)[nH]c5c4)ccc3c2)[nH]1 [Compound B55] | >100 |
| CC1(C(=O)N[C@H](c2ncc(-c3ccc(-c4ccc(-c5cnc([C@@H](NC(=O)C6(C)CCC(F)(F)CC6)C6(C)CC6)[nH]5)cc4)cc3)[nH]2)C2(C)CC2)CCC(F)(F)CC1 [Compound P-133] | >100 |
| Cc1oncc1C(=O)N[C@H](c1ncc(-c2ccc(-c3ccc(-c4cnc([C@@H](NC(=O)c5cnoc5C)C(C)C)[nH]4)cc3)cc2)[nH]1)C(C)C [Compound S-104] | >100 |
| CC(C)(C)C(=O)N[C@H](c1ncc(-c2ccc3cc4cc(-c5cnc([C@@H](NC(=O)C(C)(C)C)C(C)(C)C)[nH]5)ccc4cc3c2)[nH]1)C(C)(C)C [Compound B27] | >100 |
| CC1CN(C(=O)C(=O)NC(c2nc(-c3ccc(-c4ccc(-c5c[nH]c(C(NC(=O)C(=O)N6CC(C)OC(C)C6)C(C)C)n5)cc4)cc3)c[nH]2)C(C)C)CC(C)O1 (centres unmarked) [Compound W-54] | >100 |
| CC(C)[C@H](NC(=O)C(=O)C1(C)CCCO1)c1ncc(-c2ccc(-c3ccc(-c4cnc([C@@H](NC(=O)C(=O)C5(C)CCCO5)C(C)C)[nH]4)cc3)cc2)[nH]1 (some centres unmarked) [Compound P-118] | >100 |
| COCC(NC(=O)C1CCC(F)(F)CC1)c1nc(-c2ccc(-c3ccc(-c4c[nH]c(C(COC)NC(=O)C5CCC(F)(F)CC5)n4)cc3)cc2)c[nH]1 [Compound L-102] | >100 |
| CC(C)[C@H](NC(=O)C(C)(C)C(O)C1CC(F)(F)C1)c1nc(-c2ccc(-c3ccc(-c4c[nH]c([C@@H](NC(=O)C(C)(C)C(O)C5CC(F)(F)C5)C(C)C)n4)cc3)cc2)c[nH]1 (single isomer, unassigned) [Compound N-145C] | >100 |
| CCOC(C)(C)C(=O)N[C@H](c1nc(-c2ccc(-c3ccc(-c4c[nH]c([C@@H](NC(=O)C(C)(C)OCC)C(C)(C)C)n4)cc3)cc2)c[nH]1)C(C)(C)C [Compound P-26] | >100 |
| CC(C)(C)[C@H](NC(=O)Cc1ccccc1OC(F)(F)F)c1nc(-c2ccc(-c3ccc(-c4c[nH]c([C@@H](NC(=O)Cc5ccccc5OC(F)(F)F)C(C)(C)C)n4)cc3)cc2)c[nH]1 [Compound Y-73] | >100 |
| CC(=O)N[C@H](c1ncc(-c2ccc(-c3ccc(-c4cnc([C@@H](NC(C)=O)C(C)C)[nH]4)cc3)cc2)[nH]1)C(C)C [Compound S-49] | >10 |
| CC(C)(CF)[C@H](NC(=O)C1CCC(F)(F)CC1)c1ncc(-c2ccc(-c3ccc(-c4cnc([C@@H](NC(=O)C5CCC(F)(F)CC5)C(C)(C)CF)[nH]4)cc3)cc2)[nH]1 [Compound Y-69] | >100 |
| CC(C)(C)[C@H](NC(=O)[C@@]1(C)CCC(F)(F)CO1)c1ncc(-c2ccc([C@H]3C[C@@H]3c3ccc(-c4cnc([C@@H](NC(=O)[C@@]5(C)CCC(F)(F)CO5)C(C)(C)C)[nH]4)cc3)cc2)[nH]1 [Compound B-187] | >100 |
| COC(C)(CCO)C(=O)N[C@H](c1nc(-c2ccc(-c3ccc(-c4c[nH]c([C@@H](NC(=O)C(C)(CCO)OC)C(C)(C)C)n4)cc3)cc2)c[nH]1)C(C)(C)C (single isomer, unassigned) [Compound W-258] | >100 |
| CC(CO)(OCCF)C(=O)N[C@H](c1nc(-c2ccc(-c3ccc(-c4c[nH]c([C@@H](NC(=O)C(C)(CO)OCCF)C(C)(C)C)n4)cc3)cc2)c[nH]1)C(C)(C)C (single isomer, unassigned) [Compound W-271] | >100 |
| CC(CO)(OCCF)C(=O)N[C@H](c1nc(-c2ccc(-c3ccc(-c4c[nH]c([C@@H](NC(=O)C(C)(CO)OCCF)C(C)(C)C)n4)cc3)cc2)c[nH]1)C(C)(C)C (single isomer, unassigned) [Compound W-270] | >100 |
| COC(C)(CCO)C(=O)N[C@H](c1nc(-c2ccc(-c3ccc(-c4c[nH]c([C@@H](NC(=O)C(C)(CCO)OC)C(C)(C)C)n4)cc3)cc2)c[nH]1)C(C)(C)C (single isomer, unassigned) [Compound W-259] | >100 |
| C[C@@H]1CN(C(=O)C(=O)N[C@H](c2nc(-c3ccc(-c4ccc(-c5c[nH]c([C@@H](NC(=O)C(=O)N6C[C@@H](C)O[C@@H](C)C6)C6(C)CC6)n5)cc4)cc3)c[nH]2)C2(C)CC2)C[C@H](C)O1 [Compound W-61] | >100 |
| CC(C)[C@H](NC(=O)c1cccc(Cl)c1)c1ncc(-c2ccc(-c3ccc(-c4cnc([C@@H](NC(=O)c5cccc(Cl)c5)C(C)(C)C)[nH]4)cc3)cc2)[nH]1 [Compound Y-46] | >100 |

| SMILES | Fold-Synergistic 1a (Q30E) [fold] |
| --- | --- |
| COc1ccc2c(C(=O)N3CCC[C@H]3c3ncc(-c4ccc(-c5ccc(-c6cnc([C@@H]7CCCN7C(=O)c7nc(Cl)cc8cc(OC)ccc78)[nH]6)cc5)cc4)[nH]3)nc(Cl)cc2c1 [Compound S-204] | >100 |
| CC(C)[C@H](NC(=O)C(=O)c1ncccc1F)c1ncc(-c2ccc(-c3ccc(-c4cnc([C@@H](NC(=O)C(=O)c5ncccc5F)C(C)C)[nH]4)cc3)cc2)[nH]1 [Compound P-120] | >100 |
| CC(C)(C)[C@H](NC(=O)C1C2CCOC21)c1nc(-c2ccc(-c3ccc(-c4cnc([C@@H](NC(=O)C5C6CCOC65)C(C)(C)C)[nH]4)cc3)cc2)c[nH]1 (single isomer, unassigned) [Compound B-164] | >100 |
| CC(C)[C@H](NC(=O)c1ccccc1C(F)(F)F)c1ncc(-c2ccc(-c3ccc(-c4cnc([C@@H](NC(=O)c5ccccc5C(F)(F)F)C(C)C)[nH]4)cc3)cc2)[nH]1 [Compound S-69] | >100 |
| CC(C)(C)[C@H](NC(=O)[C@@](C)(O)c1ccccc1)c1nc(-c2ccc(-c3ccc(-c4c[nH]c([C@@H](NC(=O)[C@@](C)(O)c5ccccc5)C(C)(C)C)n4)cc3)cc2)c[nH]1 [Compound L-95] | >100 |
| CC1(C)CCCC(C)(C(=O)N[C@H](c2nc(-c3ccc(-c4ccc(-c5c[nH]c([C@@H](NC(=O)C6(C)CCCC(C)(C)O6)C(C)(C)C)n5)cc4)cc3)c[nH]2)C(C)(C)C)O1 (single isomer, unassigned) [Compound W-167] | >100 |
| CC(C)(CF)C(=O)N[C@H](c1nc(-c2ccc(-c3ccc(-c4c[nH]c([C@@H](NC(=O)C(C)(C)CF)C(C)(C)C)n4)cc3)cc2)c[nH]1)C(C)(C)C [Compound P-19] | >100 |
| CC(C)[C@H](NC(=O)CC1CCCCC1)c1ncc(-c2ccc(-c3ccc(-c4cnc([C@@H](NC(=O)CC5CCCCC5)C(C)C)[nH]4)cc3)cc2)[nH]1 [Compound S-26] | >100 |
| C#CCOC(=O)N1CCC[C@H]1c1ncc(-c2ccc(-c3ccc(-c4cnc([C@@H]5CCCN5C(=O)OCC#C)[nH]4)cc3)cc2)[nH]1 [Compound S-224] | >10 |
| COC(CO)(CC(C)C)C(=O)N[C@H](c1nc(-c2ccc(-c3ccc(-c4c[nH]c([C@@H](NC(=O)C(CO)(CC(C)C)OC)C(C)(C)C)n4)cc3)cc2)c[nH]1)C(C)(C)C (single isomer, unassigned) [Compound N-160A] | >100 |
| CC(C)OC(C)(C)C(=O)N[C@H](c1nc(-c2ccc(-c3ccc(-c4c[nH]c([C@@H](NC(=O)C(C)(C)OC(C)C)C(C)(C)C)n4)cc3)cc2)c[nH]1)C(C)(C)C [Compound Y-1] | >100 |
| CC(C)(C)[C@H](NC(=O)C1(CO)CCCO1)c1nc(-c2ccc(-c3ccc(-c4c[nH]c([C@@H](NC(=O)C5(CO)CCCO5)C(C)(C)C)n4)cc3)cc2)c[nH]1 (single isomer, unassigned) [Compound Y-112] | >100 |
| COC(=O)N[C@@H](C(=O)N[C@H](c1nc(-c2ccc(-c3ccc(-c4c[nH]c([C@@H](NC(=O)[C@H](NC(=O)OC)C(C)C)C(C)(C)C)n4)cc3)cc2)c[nH]1)C(C)(C)C)C(C)C [Compound N-28] | >100 |
| CC(CO)(CF)C(=O)NC(c1nc(-c2ccc(-c3ccc(-c4c[nH]c(C(NC(=O)C(C)(CO)CF)C(C)(C)C)n4)cc3)cc2)c[nH]1)C(C)(C)C (mixture of isomers) [Compound N-138] | >100 |
| CC(C)[C@H](NC(=O)C1CCC1)c1ncc(-c2ccc(-c3ccc(-c4cnc([C@@H](NC(=O)C5CCC5)C(C)C)[nH]4)cc3)cc2)[nH]1 [Compound S-22] | >100 |
| Cc1cccc(C(=O)N[C@H](c2ncc(-c3ccc(-c4ccc(-c5cnc([C@@H](NC(=O)c6cccc(C)n6)C(C)C)[nH]5)cc4)cc3)[nH]2)C(C)C)n1 [Compound S-48] | >100 |
| COC(=O)NC(C(=O)NC(c1ncc(-c2ccc(-c3ccc(-c4cnc(C5CCCN5C(=O)C(NC(=O)OC)C(C)C)[nH]4)cc3)cc2)[nH]1)C(C)(C)C)C(C)C (centres unmarked) [Compound B-196] | >10 |
| CC(C)(C)[C@H](NC(=O)C(C)(C)C1(O)CCC(F)(F)CC1)c1nc(-c2ccc(-c3ccc(-c4c[nH]c([C@@H](NC(=O)C(C)(C)C5(O)CCC(F)(F)CC5)C(C)(C)C)n4)cc3)cc2)c[nH]1 [Compound P-149] | >100 |
| CN(C(=O)OC(C)(C)C)C(C)(C)C(=O)N[C@H](c1nc(-c2ccc(-c3ccc(-c4c[nH]c([C@@H](NC(=O)C(C)(C)N(C)C(=O)OC(C)(C)C)C(C)(C)C)n4)cc3)cc2)c[nH]1)C(C)(C)C.O=C(O)C(F)(F)F.O=C(O)C(F)(F)F [Compound L-8] | >100 |
